Reference: patent US20240294551A1 (AMGEN INC., priority 2022, published 2024)

Key:
AsPC-1 cells = assay: AsPC-1 CTG Assay (CellTiter-Glo cell viability); assay type: cell-based, human; settings: Homo sapiens, ASPC1, 72 h, AsPC-1, 72 h; first value of the cell; read-out: G12D/C/V Cell Proliferation CTG (72 h) AsPC-1
In short: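 IC50 values derive from 4-parameter logistic fits of CellTiter-Glo luminescence, expressed relative to DMSO. Compound dilution series were applied to overnight-seeded AsPC-1 or SW620 cells (RPMI 1640, 10% FBS) for 72 h at 37 °C, 5% CO2.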

[1] = target: GDP-bound KRAS protein (aa 1-169), containing both G12D and C118A amino acid substitutions (Homo sapiens (Human), UniProt P01116, C118A/G12D); assay: KRAS G12D Coupled Nucleotide Exchange Assay; assay type: biochemical; settings: read-out: KRAS G12D Coupled Exchange IC50
[2] = system: Phosphorylation of ERK1/2 in AsPC-1 cells; assay: Phospho-ERK1/2 MSD Assay; assay type: cell-based, human; settings: Homo sapiens, ASPC1, 2 h, read-out: 2 h p-ERK (AsPC-1 cells), IC50
In short: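 Read-out: MSD electrochemiluminescent detection of phosphorylated ERK1/2 in whole-cell lysates, fitted to a 4-parameter logistic curve for IC50. Prior to lysis, AsPC-1 cells (25,000 per well) received a 2 h compound dose-response at 37 °C.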

[3] = target: His-tagged KRAS G12D protein (Homo sapiens (Human), UniProt P01116, G12D); assay: KRAS G12D TR-FRET Assay; assay type: binding; settings: read-out: KRAS G12D Binding IC50
In short: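 Each incubation ran at room temperature: enzyme with compound for 30 minutes, peptide for one hour, and detection reagents (0.4 nM europium anti-6×His, 5 nM streptavidin-d2) for one hour more. Protein and peptide stocks were each diluted to 20 nM before addition.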

Sequence of GDP-bound KRAS protein (aa 1-169), containing both G12D and C118A amino acid substitutions (P01116 other isoform, or with tags, fused parts or gaps G12D/C118A): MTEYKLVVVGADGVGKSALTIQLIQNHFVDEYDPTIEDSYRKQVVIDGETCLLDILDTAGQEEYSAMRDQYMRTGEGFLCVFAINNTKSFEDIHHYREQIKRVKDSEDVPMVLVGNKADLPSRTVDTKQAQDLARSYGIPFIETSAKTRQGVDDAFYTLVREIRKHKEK
Sequence of His-tagged KRAS G12D protein (P01116 other isoform, or with tags, fused parts or gaps G12D): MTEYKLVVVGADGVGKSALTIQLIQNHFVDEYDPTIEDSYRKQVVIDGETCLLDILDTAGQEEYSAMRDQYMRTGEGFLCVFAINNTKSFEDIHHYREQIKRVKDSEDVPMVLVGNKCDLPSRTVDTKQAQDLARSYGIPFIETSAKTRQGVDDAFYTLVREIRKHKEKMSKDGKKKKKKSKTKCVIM

SMILES | IC50 (AsPC-1 cells) | IC50 [1] | IC50 [2] | IC50 [3]
O=C1NCCCc2c(Cl)cc3[nH]ncc3c2-c2ncc3c(nc(OC[C@@]45CCCN4C[C@H](F)C5)nc3c2F)N2CCCC[C@H](C2)O1 [Example 288] | 427 nM | 2 nM | 102 nM | 7 nM
Cc1cc2[nH]ncc2c2c1CCOC(=O)O[C@H]1C[C@]3(CCCN(C3)c3nc(OC[C@@]45CCCN4C[C@H](F)C5)nc4c(F)c-2ncc34)C1 [Example 193, (1R,3S)-32-fluoro-24-(((2R,7aS)-2-fluorotetrahydro-1H-pyrrolo[1,2-a]pyrrol-7a(5H)-yl)methoxy)-10-methyl-4,6-dioxa-13,14,19,23,25,27-hexaazaheptacyclo[25.3.1.1~1,3~.1~18,22~.0~9,17~.0~12,16~.0~21,26~]tritriaconta-9,11,14,16,18(32),19,21,23,25-nonaen-5-one] | 60 nM | 24 nM | 23.9 nM | 49 nM
Cc1cc2[nH]ncc2c2c1CCOC(=O)O[C@H]1C[C@]3(CCCN(C3)c3nc(OC[C@@]45CCCN4C[C@H](F)C5)nc4cc-2ncc34)C1 [Example 349, (1R,3S)-24-(((2R,7aS)-2-fluorotetrahydro-1H-pyrrolo[1,2-a]pyrrol-7a(5H)-yl)methoxy)-10-methyl-4,6-dioxa-13,14,19,23,25,27-hexaazaheptacyclo[25.3.1.1~1,3~.1~18,22~.0~9,17~.0~12,16~.0~21,26~]tritriaconta-9,11,14,16,18(32),19,21,23,25-nonaen-5-one] | 645 nM | 2 nM | 30.4 nM | 5 nM
O=C1OCCc2c(Cl)cc3[nH]ncc3c2-c2cc3nc(OC[C@@]45CCCN4C[C@H](F)C5)nc(c3nn2)N2CCC[C@]3(C2)C[C@H](C3)O1 [Example 357, (1R,3S)-10-chloro-24-(((2R,7aS)-2-fluorotetrahydro-1H-pyrrolo[1,2-a]pyrrol-7a(5H)-yl)methoxy)-4,6-dioxa-13,14,19,20,23,25,27-heptaazaheptacyclo[25.3.1.1~1,3~.1~18,22~.0~9,17~.0~12,16~.0~21,26~]tritriaconta-9,11,14,16,18(32),19,21,23,25-nonaen-5-one] | 1970 nM | 10 nM | 234 nM | 14 nM
O=C1N[C@@H]2CCCCN(C2)c2nc(OC[C@@]34CCCN3C[C@H](F)C4)nc3c(F)c(ncc23)-c2c(c(Cl)cc3[nH]ncc23)CCCC1F (mixture of isomers) [Example 161] | 225 nM | 4 nM | 19.8 nM | 6 nM
Fc1c2ncc3c(nc(OC[C@@]45CCCN4C[C@H](F)C5)nc13)N1CCOC[C@H](C1)c1cnn(n1)CCCc1c(Cl)cc3[nH]ncc3c1-2 [Example 298, (1R)-10-chloro-33-fluoro-24-(((2R,7aS)-2-fluorotetrahydro-1H-pyrrolo[1,2-a]pyrrol-7a(5H)-yl)methoxy)-30-oxa-4,5,13,14,19,23,25,27,34-nonaazaheptacyclo[25.4.1.1~2,5~.1~18,22~.0~9,17~.0~12,16~.0~21,26~]tetratriaconta-2(34),3,9,11,14,16,18(33),19,21,23,25-undecaene] | 592 nM | 3 nM | 91.3 nM | 7 nM
C[C@@]12COCCN(C1)c1nc(OC[C@@H]3CC[C@H]4COCCN43)nc3c(F)c(ncc13)-c1c(c(Cl)cc3[nH]ncc13)CCCOC(=O)O2 [Example 309, (26S)-18-chloro-32-fluoro-4-((6S,8aS)-hexahydro-1H-pyrrolo[2,1-c][1,4]oxazin-6-ylmethoxy)-26-methyl-23,25,28-trioxa-1,3,5,9,14,15-hexaazahexacyclo[24.4.1.1~6,10~.0~2,7~.0~11,19~.0~12,16~]dotriaconta-2,4,6,8,10(32),11,13,16,18-nonaen-24-one] | 153 nM | 4 nM | 71.6 nM | 10 nM
C#CCO[C@@H]1CN2CCC[C@@]2(COc2nc3c4cnc(c(F)c4n2)-c2c(c(Cl)cc4[nH]ncc24)CCCOC(=O)O[C@@H]2COCCN3C2)C1 [Example 369, (26S)-18-Chloro-32-fluoro-4-(((2S,7aS)-2-(2-propyn-1-yloxy)tetrahydro-1H-pyrrolo[1,2-a]pyrrol-7a(5H)-yl)methoxy)-23,25,28-trioxa-1,3,5,9,14,15 hexaazahexacyclo[24.4.1.1˜6,10˜.0˜2,7˜.0˜11,19˜.0˜12,16˜]dotriaconta-2,4,6,8,10(32),11,13,16,18-nonaen-24-one] | 5000 nM | 8 nM | 363 nM | 13 nM
C[C@@]12COCCN(C1)c1nc(OC[C@@]34CCCN3C[C@H](F)C4)nc3c(F)c(ncc13)-c1cc(O)cc3ccc(F)c(c13)CCOC(=O)O2 [Example 345, (16S)-23,32-difluoro-8-(((2R,7aS)-2-fluorotetrahydro-1H-pyrrolo[1,2-a]pyrrol-7a(5H)-yl)methoxy)-28-hydroxy-16-methyl-14,17,19-trioxa-3,7,9,11-tetraazahexacyclo[20.7.1.1~2,6~.1~11,16~.0~5,10~.0~26,30~]dotriaconta-1(30),2(32),3,5,7,9,22,24,26,28-decaen-18-one] | 16 nM | 1 nM | 0.7 nM | 3 nM
Fc1c2ncc3c(nc(OC[C@@]45CCCN4C[C@H](F)C5)nc13)N1CC(COCCCCc3c(Cl)cc4[nH]ncc4c3-2)CC2(CC2)C1 (stereo partly shown) [Example 228] | 487 nM | 8 nM | 181 nM | 12 nM
Fc1c2ncc3c(nc(OC[C@@]45CCCN4C[C@H](F)C5)nc13)N1CCC[C@H](C1)c1noc(n1)CCCc1c(Cl)cc3[nH]ncc3c1-2 [Example 247, (18R)-9-chloro-31-fluoro-25-(((2R,7aS)-2-fluorotetrahydro-1H-pyrrolo[1,2-a]pyrrol-7a(5H)-yl)methoxy)-15-oxa-5,6,16,22,24,26,30,33-octaazaheptacyclo[25.3.1.1~14,17~.1~18,22~.0~2,10~.0~3,7~.0~23,28~]tritriaconta-1(31),2,4,7,9,14(33),16,23,25,27,29-undecaene] | 446 nM | 5 nM | 31.2 nM | 9 nM
O=C1CCCCc2c(Cl)cc3[nH]ncc3c2-c2ncc3c(nc(OC[C@@]45CCCN4C[C@H](F)C5)nc3c2F)N2CCC[C@H](C2)O1 [Example 36, (17R)-9-Chloro-30-fluoro-24-(((2R,7aS)-2-fluorotetrahydro-1H-pyrrolo[1,2-a]pyrrol-7a(5H)-yl)methoxy)-16-oxa-5,6,21,23,25,29-hexaazahexacyclo[24.3.1.1˜17,21˜.0˜2,10˜.0˜3,7˜.0˜22,27˜]hentriaconta-1(30),2,4,7,9,22,24,26,28-nonaen-15-one bis(2,2,2-trifluoroacetate)] | 111 nM | 1 nM | 8 nM | 3 nM
Cc1cc2[nH]ncc2c2c1CCCCC(=O)N[C@H]1CN(C[C@H]3C[C@H]31)c1nc(OC[C@@]34CCCN3C[C@H](F)C4)nc3c(F)c-2ncc13 [Example 171, (26R,27R,29S)-32-fluoro-4-(((2R,7aS)-2-fluorotetrahydro-1H-pyrrolo[1,2-a]pyrrol-7a(5H)-yl)methoxy)-18-methyl-1,3,5,9,14,15,25-heptaazaheptacyclo[24.4.1.1~6,10~.0~2,7~.0~11,19~.0~12,16~.0~27,29~]dotriaconta-2,4,6,8,10(32),11,13,16,18-nonaen-24-one] | 1090 nM | 4 nM | 106 nM | 6 nM
